Here are results for 1 molecule from US20240350421A1, “Cationic Polymeric Nanoparticles and Their Uses in Treating Diseases” (University of Connecticut, priority 2021, published 2024).

Each structure is given as a SMILES string.

The data set in a line: Cell proliferation (trypan blue) assay in HeLa cells. The class given is cell-based. The settings on record: human, read-out: reduction in cell viability. On the procedure: 200,000 PBMC cells were seeded in a plate (12 well) overnight and treated with 2 mg/mL blank F2 NPs and 150 μL of lipofectamine. After 24 h, cells were stained with trypan blue dye and total live cells were determined by cell counter (Bio-Rad, USA). For cytotoxicity assay in HeLa cells, 50,000 HeLa cells were seeded in plates (24 well) and treated with paclitaxel (PTX) F2 NPs for 24 h, and cell viability was measured by staining with trypan blue dye.

As for `CC(=O)O[C@H]1C(=O)[C@@]2(C)[C@H]([C@H](OC(=O)c3ccccc3)[C@]3(O)C[C@H](OC(=O)[C@H](O)[C@@H](NC(=O)c4ccccc4)c4ccccc4)C(C)=C1C3(C)C)[C@]1(OC(C)=O)CO[C@@H]1C[C@@H]2O` [PTX suspension, paclitaxel], the cytotoxicity at 24 h was found to be 17%.
